Test results: patent US11052154B2, “Ras protein degradation inducing molecule and pharmaceutical composition” (Tokyo University of Science Foundation, priority 2016, dated 2021)
Where a SMILES comes first, the peptide text is derived from it. [ ]: non-standard residue; d: D form. Nle = CCCC[C@H](N)C(=O)O

Tests used:
[1] = biological target: T1, catalytic subunit β1 of a proteasome (Homo sapiens, UniProt P28072); details: literature report, consistent with FIG. 13A; cited from earlier work
T1 construct: purchased Bioscience (so in the source) 20S Proteasome StressXpress Assay Kit Gold

[2] = biological target: T2, PAC-3 (molecule assembly factor) (Homo sapiens, UniProt Q9BT73); details: Table 17; cited from earlier work
T2 sequence (Q9BT73 1-122): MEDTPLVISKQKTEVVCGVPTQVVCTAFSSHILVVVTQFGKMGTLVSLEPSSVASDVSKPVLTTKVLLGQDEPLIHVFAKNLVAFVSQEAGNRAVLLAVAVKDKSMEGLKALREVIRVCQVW

HeLa cells = test: Apoptosis induction in HeLa cells, FACS analysis (Annexin V/PI); type: cell-based, human; details: HeLa cells expressing wild-type K-Ras, 24 hours after addition; FIGS. 6A, 7A
Experimental: (§1) In Example 7, apoptosis induction in a case where TUS-007, Ras-SOS, or Ras-SOS-NH2 was added to HeLa cells or SW1990 cells (human pancreatic cancer cells) had been added was evaluated by the FACS analysis. It is noted that in HeLa cells, the wild-type K-Ras protein (K-Ras-WT) is expressed, and in SW1990 cells, the G12D mutant K-Ras protein (K-Ras-G12D) is expressed.
(§2) HeLa cells or SW1990 cells were seeded in a 24-well plate at a cell density of 8×10^4 cells/well, and then cultured under conditions of 37° C. and 5 vol % CO2 for 16 hours.
(§3) After 16 hours from cell seeding, TUS-007, Ras-SOS, or Ras-SOS-NH2 were added to HeLa cells or SW1990 cells as follows. As a medium, a serum-free medium (37° C.) in which 1 mass % L-glutamine solution (Sigma-Aldrich) was added to D-MEM (high D-glucose, phenol red, sodium pyruvate (Wako Pure Chemical Industries, Ltd.)) was used. It is noted that the L-glutamine solution was added immediately before use. A DMSO solution containing TUS-007, Ras-SOS, or Ras-SOS-NH2 was mixed with the medium so that the concentration of DMSO was 1 vol %, and added to each well at 500 μL/well, and cultured under conditions of 37° C. and 5 vol % CO2. As a control, DMSO was used.
(§4) The medium was removed 24 hours after addition of TUS-007, Ras-SOS, or Ras-SOS-NH2, and then PBS was added to wash the cells. After removing PBS, trypsin (0.25 w/v % trypsin-1 mmol/L EDTA⋅4 Na solution with phenol red) (Wako Pure Chemical Industries, Ltd.) at 37° C. was added to each well at 200 μL/well, and cultured under conditions of 37° C. and 5 vol % CO2 for 1 minute. […]
(§5) A BD FACSCanto™ II (BD Biosciences) was used for flow cytometry. […] The proportion of Annexin V-positive and PI-negative cells was calculated using an analysis software FlowJo™ (TOMY Digital Biology Co., Ltd.), and the proportion was defined as a proportion of apoptosis cells.
(§6) In Example 8, apoptosis induction in a case where TUS-007, Ras-SOS-NH2, or erlotinib as an anticancer agent (EGFR inhibitor) was added to HeLa cells or SW1990 cells was evaluated by FACS analysis as in Example 7.

SW1990 cells = test: Apoptosis induction in SW1990 cells, FACS analysis (Annexin V/PI); type: cell-based, human; details: SW1990 cells expressing G12D mutant K-Ras, 24 hours after addition; FIGS. 6B, 7B
Experimental: as §1, §2, §3, §4, §5, §6

[3] = biological target: T3, endogenous wild-type K-Ras protein (Mus musculus, UniProt P32883); test: Degradation of endogenous wild-type K-Ras protein in mouse pancreas and colorectal tissue, Western blot analysis; type: in vivo; details: C57BL/6J mice, intraperitoneal, TUS-007 40 or 80 mg/kg, Ras-SOS 80 mg/kg, 48 hours; pancreas and colon; FIG. 8
T3 construct: an endogenous wild-type K-Ras protein and wild-type H-Ras protein; from tissue; host or cells: mouse pancreas and colon
Experimental: (§7) In Example 9, in a mouse individual to which TUS-007 had been administered, the degradation (knockdown) of an endogenous wild-type K-Ras protein and wild-type H-Ras protein was evaluated by Western blot analysis.
(§8) TUS-007 was dissolved in DMSO, and then dissolved in corn oil so that the concentration of DMSO was 10 vol %, and then intraperitoneally administered to C57BL/6J wild-type mice (8 to 9 weeks old, male) (CLEA Japan, Inc.) in an amount of 40 mg/kg body weight or 80 mg/kg body weight (n=3 to 4). Furthermore, in addition to a group in which TUS-007 was administered, a group in which Ras-SOS had been administered in a dose of 80 mg/kg body weight was prepared. As a control, an injection carrier (corn oil containing 10 vol % DMSO) was used. The mice were kept under an environment of ad libitum access to food and water. The mice were dissected under deep anesthesia 48 hours after administration. The pancreas and colon were excised, and flash frozen in liquid nitrogen.
(§9) The frozen pancreas and colon were each triturated, and then TKM tissue lysis buffer (50 mM triethanolamine (pH 7.8), 50 mM KCl, 5 mM MgCl2, 0.25 M sucrose, 1 mM PMSF, Protein Inhibitors Cocktail-EDTA free (Nacalai Tesque, Inc.), 1 mM DTT, and a recombinant RNase inhibitor (0.2 U/μL, Takara Bio) were added, and subjected to centrifugation (at 13800 rpm×30 minutes, 4° C.), and the supernatants (pancreatic tissue extract and colorectal tissue extract) were collected. The concentration of the extracted proteins was quantified with a spectrophotometer.
(§10) Each tissue extract collected was subjected to Western blot analysis. […]
(§11) After electrophoresis, proteins were transferred to a PVDF membrane (Immobion™-P, Millipore) under conditions of 200 mA and 90 minutes using a tank-type blotting device and a transfer buffer (25 mM Tris-HCl, 195 mM glycine, 0.01% SDS, 15% methanol). […] Subsequently, the membrane was treated with a chemiluminescence reagent Immobilon™ Western (Millipore), and then chemiluminescence was detected using a lumino image analyzer LAS-3000 (FUJIFILM Corporation).

[4] = biological target: T4, endogenous wild-type H-Ras protein (Mus musculus, UniProt Q61411); test: Degradation of endogenous wild-type H-Ras protein in mouse pancreas and colorectal tissue, Western blot analysis; type: in vivo; details: C57BL/6J mice, intraperitoneal, TUS-007 40 or 80 mg/kg, Ras-SOS 80 mg/kg, 48 hours; pancreas and colon; FIG. 8
T4 construct: an endogenous wild-type K-Ras protein and wild-type H-Ras protein; from tissue; host or cells: mouse pancreas and colon
Experimental: as §7, §8, §9, §10, §11

K-Ras protein = details: known from Sun, Q. et al.; cited from earlier work
[5] = tested on: interaction between the Ras protein and the SOS protein; details: known from Sun, Q. et al.; cited from earlier work
[6] = biological target: T1, catalytic subunit β1 of a proteasome; test: Proteasome inhibitory activity, 20S proteasome β1 (caspase-like activity); type: biochemical; details: 20S proteasome assay kit, AMC fluorescence substrate; FIGS. 10A, 13A
Experimental: (§12) In Reference Example 2, the proteasome inhibitory activity of TMP-CANDDY_DMT and the affinity of TMP-CANDDY_DMT with a proteasome were evaluated. As a positive control, MG-132 as a proteasome inhibitor was used.
(§13) For evaluation, 20S Proteasome StressXpress™ Assay Kit Gold (Bioscience) was used. AMC was measured by using Multi-Detection Microplate Reader (Synergy HT, BIO-TEK). The AMC was produced by cleaving the C-terminus of an AMC-binding proteasome fluorescence substrate specific to β subunits of a 20S proteasome, including β5 (chymotrypsin-like activity), β2 (trypsin-like activity), and β1 (caspase-like activity). The measuring wavelengths were 360 nm for excitation light (Ex.), and 460 nm for fluorescence (Em.).
(§14) In Reference Example 6, as in Reference Example 2, a proteasome inhibitory activity of TMP-CANDDY_ALLN and an affinity of TMP-CANDDY_ALLN with a proteasome were evaluated.

[7] = biological target: T5, catalytic subunit β2 of the proteasome (Homo sapiens, UniProt Q99436); test: Proteasome inhibitory activity, 20S proteasome β2 (trypsin-like activity); type: biochemical; details: 20S proteasome assay kit, AMC fluorescence substrate; FIGS. 10B, 13B
T5 construct: purchased Bioscience (so in the source) 20S Proteasome StressXpress Assay Kit Gold
Experimental: as §12, §13, §14

[8] = biological target: T6, catalytic subunit β5 of the proteasome (Homo sapiens, UniProt P28074); test: Proteasome inhibitory activity, 20S proteasome β5 (chymotrypsin-like activity); type: biochemical; details: 20S proteasome assay kit, AMC fluorescence substrate; FIGS. 10C, 13C
T6 construct: purchased Bioscience (so in the source) 20S Proteasome StressXpress Assay Kit Gold
Experimental: as §12, §13, §14

ecDHFR protein [9] = biological target: T7, ecDHFR protein (Escherichia coli, UniProt P0ABQ4); type: cell-based, human; details: HeLa cells, 24 hours after addition, vs control (DMSO); FIGS. 11, 14
T7 construct: expressed in transfected cells; host or cells: HeLa

ecDHFR protein [10] = biological target: T7, ecDHFR protein; type: cell-based, human; details: HeLa cells, FIGS. 12A, 12B

In the case of `CCCC[C@@H](C=O)NC(=O)[C@H](CC(C)C)NC(=O)[C@H](CC(C)C)NC(C)=O` [ALLN] (Ac-Leu-Leu-[Nle]-aldehyde), the “inhibition of proteasome β1 as reported (Kaiser, M. et al.)” value [1] is listed as “β1 was not inhibited by ALLN”.
In the case of `CC(C)C(O)(CC1C(=O)/C(=C(\O)[C@H]2C3CCCC[C@H]3C=C[C@H]2C)C(=O)N1C)C(=O)O` (some centres unmarked) [JBIR-22], the “Others: PAC-3 inhibition” value [2] is listed as “PAC-3 (molecule assembly factor) inhibition)”.
With `CC[C@H](C)[C@H](N)C(=O)Nc1ccc2[nH]c(Cc3c[nH]c4ccccc34)nc2c1` [Ras-SOS] the “apoptosis induction (proportion of Annexin V-positive and PI-negative cells)” value (“apoptosis induction” for short) (HeLa cells) was “apoptosis was induced in a concentration-dependent manner”, the “apoptosis induction” value (SW1990 cells) was “the effect of the apoptosis induction by Ras-SOS was largely reduced” and the “amount of the endogenous wild-type K-Ras protein in mouse tissues (Western blot)” value [3] was “the amount of the wild-type K-Ras protein and the wild-type H-Ras protein was not reduced”. The “amount of the endogenous wild-type H-Ras protein in mouse tissues (Western blot)” value [4] was “the amount of the wild-type K-Ras protein and the wild-type H-Ras protein was not reduced”, the “binding to K-Ras protein (wild-type, G12D mutant, G12V mutant)” value (K-Ras protein) was “bound to not only a wild-type K-Ras protein but also a G12D mutant and a G12V mutant K-Ras protein” and the “inhibition of the interaction between the Ras protein and the SOS protein” value [5] was “inhibit the interaction between the Ras protein and the SOS protein”.
With `CCCC[C@H](NC(=O)[C@H](CC(C)C)NC(=O)[C@H](CC(C)C)NC(C)=O)C(=O)NCCCCCCNC(=O)COc1c(OC)cc(Cc2cnc(N)nc2N)cc1OC` [TMP-CANDDY_ALLN] the “inhibitory activity against proteasome β1 (caspase-like activity)” value [6] was “increased against any of β1, β2, and β5 in a concentration dependent manner”, the “inhibitory activity against proteasome β2 (trypsin-like activity)” value [7] was “the inhibitory activity was weakened” and the “inhibitory activity against proteasome β5 (chymotrypsin-like activity)” value [8] was “the inhibitory activity was weakened”. The “degradation (knockdown) of the ecDHFR protein (shift of GFP/DsRed ratio graph)” value (ecDHFR protein [9]) was “degradation of the ecDHFR protein was induced”.
For `COc1nc(NCCCCCCNC(=O)COc2c(OC)cc(Cc3cnc(N)nc3N)cc2OC)nc(OC)n1` [TMP-CANDDY_DMT], the “inhibitory activity against proteasome β1 (caspase-like activity)” value [6] was “significantly lower proteasome inhibitory activity as compared with MG-132”, the “inhibitory activity against proteasome β2 (trypsin-like activity)” value [7] was “significantly lower proteasome inhibitory activity as compared with MG-132” and the “inhibitory activity against proteasome β5 (chymotrypsin-like activity)” value [8] was “significantly lower proteasome inhibitory activity as compared with MG-132”. For the same molecule, the “degradation (knockdown) of the ecDHFR protein (shift of GFP/DsRed ratio graph)” value (ecDHFR protein [9]) was “degradation of the ecDHFR protein was induced”, the “amount of the ecDHFR protein (Western blot)” value (ecDHFR protein [10]; 24 hours after addition, cycloheximide 50 μg/mL at 12 hours) was “the amount of the ecDHFR protein was reduced” and the “degradation of the ecDHFR protein when both TMP-CANDDY_DMT and bortezomib were added” value (ecDHFR protein [10]; bortezomib co-added, compared with TMP-CANDDY_DMT alone) was “degradation of the ecDHFR protein was inhibited”.
For `C#Cc1cccc(Nc2ncnc3cc(OCCOC)c(OCCOC)cc23)c1` [erlotinib], the “apoptosis induction” value (HeLa cells) was “apoptosis was induced in a concentration-dependent manner” and the “apoptosis induction” value (SW1990 cells) was “the effect of the apoptosis induction by erlotinib was largely reduced”.
